Results as given in patent publication US20100292509A1, “VEGFC PRODUCTION PROMOTER” (Shiseido Company, Ltd, priority 2008, published 2010).

System: VEGFC
Settings: HaCaT cells; 7% by weight drug solution added at 1/100, 1/1000 or 1/10000 the amount of culture liquid; 48 hours; solvent control assigned 100; FIG. 1
Protocol: HaCaT cells, which are cultured cells derived from human epidermis (German Cancer Research Center, Heidelberg, Germany), were cultured in DMEM containing 10% FBS and seeded into a 24-well plate at 15×10^4 cells per well. After about 24 hours, the medium was replaced with serum-free DMEM followed by culturing for 24 hours. Subsequently, a solution of a candidate drug dissolved in water to a concentration of 7% by weight was added in an amount equal to 1/100, 1/1000 or 1/10000 the amount of culture liquid followed by additional culturing. 48 hours after adding the drug, the culture supernatant was recovered and the amount of VEGFC in the culture supernatant was quantified by ELISA (R&D Systems) in accordance with the protocol. In addition, Alamar Blue (TREK Diagnostic Systems) was added to the cells following recovery of culture supernatant followed by measurement of the number of cells as fluorescence intensity (Ex: 544 nm, Em: 590 nm). The amount of VEGFC expressed per cell was determined by dividing the amount of VEGFC in the culture supernatant by the fluorescence value of the Alamar Blue. A solvent in the form of 70% EtOH was added to the cells instead of drug for use as a control, and the value thereof was assigned a value of 100. In addition, 5% FBS was used as a positive control.

SMILES: CNC(=O)[C@H]1CC[C@H](CN)CC1.Cl [tranexamic acid methylamide hydrochloride]
- VEGFC induction activity (amount of VEGFC expressed per cell): dose-dependent VEGFC induction activity that exceeded that of the control
